# According to article PMC9875641, “Ophthalmic Solution of Smart Supramolecular Peptides to Capture Semaphorin 4D against Diabetic Retinopathy” (Advanced Science, 2022):
# Where a SMILES comes first, the peptide text is derived from it.
# Target: T1, sSema 4D (Homo sapiens, UniProt Q92854)
# T1 construct: purchased Novoprotein Ltd. (Suzhou, China)
# T1 sequence (Q92854 22-734 limits assumed): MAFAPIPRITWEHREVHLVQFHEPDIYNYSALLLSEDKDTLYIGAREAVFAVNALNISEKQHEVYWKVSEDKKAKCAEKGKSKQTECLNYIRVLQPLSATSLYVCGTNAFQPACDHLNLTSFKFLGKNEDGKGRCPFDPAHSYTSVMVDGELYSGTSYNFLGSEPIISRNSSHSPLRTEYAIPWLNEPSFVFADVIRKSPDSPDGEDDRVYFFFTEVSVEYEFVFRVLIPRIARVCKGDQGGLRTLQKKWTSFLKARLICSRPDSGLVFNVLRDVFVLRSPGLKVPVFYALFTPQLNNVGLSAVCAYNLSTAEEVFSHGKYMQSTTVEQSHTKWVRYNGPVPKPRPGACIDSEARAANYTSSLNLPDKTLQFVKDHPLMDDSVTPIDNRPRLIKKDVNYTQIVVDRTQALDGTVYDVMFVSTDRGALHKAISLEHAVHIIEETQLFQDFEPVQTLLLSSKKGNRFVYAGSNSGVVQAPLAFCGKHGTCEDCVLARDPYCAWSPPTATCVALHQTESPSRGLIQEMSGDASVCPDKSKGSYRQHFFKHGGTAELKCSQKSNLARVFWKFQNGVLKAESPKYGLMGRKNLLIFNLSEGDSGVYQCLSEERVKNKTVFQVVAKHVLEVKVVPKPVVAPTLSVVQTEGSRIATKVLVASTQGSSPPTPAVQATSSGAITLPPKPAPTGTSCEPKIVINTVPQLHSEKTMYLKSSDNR
# Experiment: SPRi binding affinity of TPs to sSema 4D
# Conditions: SPRi (surface plasmon resonance imaging)
# Experimental: To carry out the library screening, we first labeled the sSema4D with fluorescein isothiocyanate isomer (FITC), as shown in Figure 2E. Next, ≈10^6 beads library was incubated with FITC‐labeled sSema4D for 6 hours. The beads were thoroughly washed with DMF, water and methanol. Finally, under the fluorescence microscope, the beads with […] to sSema4D or FITC‐labeled sSema4D through noncovalent bonding were identified in Figure 2F. We selected twelve strongest putative fluorescent beads by physical separation. Subsequently, the corresponding peptides were cleaved off with BrCN from beads and analyzed by automatic Edman sequencing. The structures and sequence of transformable peptides (TPs) were determined and summarized (Figure S2, Supporting Information). TP‐1 to TP‐12 were resynthesized into solid phase and purified by high performance liquid chromatography (HPLC). The binding affinity of TPs toward sSema 4D was measured by enzyme‐linked immunosorbent assay (ELISA) and surface plasmon resonance imaging (SPRi). […] TP‐2 and TP‐7 were selected as the candidate TP binding sSema 4D to construct SSP. Subsequent SSP monomers (SSP‐1, sequence: C16‐FFVLK‐KQKRPRH; SSP‐2 C16‐FFVLK‐KNKAAKG) were synthesized and characterized by HPLC and Matrix‐assisted laser desorption/ionization time‐of‐flight mass spectrometry (MALDI‐TOF‐MS).
row,Kd [nM],SMILES
1,64,CC(C)[C@H](NC(=O)[C@H](CCCNC(=N)N)NC(=O)[C@H](C)NC(=O)[C@@H]1CCCN1C(=O)[C@H](C)NC(=O)[C@@H](N)CCCCN)C(=O)NCC(=O)O [TP-10] (H-KAPARVG-OH)
2,41.7,C[C@H](NC(=O)[C@H](C)NC(=O)[C@H](CCCCN)NC(=O)[C@H](CC(N)=O)NC(=O)[C@@H](N)CCCCN)C(=O)N[C@@H](CCCCN)C(=O)NCC(=O)O [TP-2] (H-KNKAAKG-OH)
3,14.6,N=C(N)NCCC[C@H](NC(=O)[C@@H]1CCCN1C(=O)[C@H](CCCNC(=N)N)NC(=O)[C@H](CCCCN)NC(=O)[C@H](CCC(N)=O)NC(=O)[C@@H](N)CCCCN)C(=O)N[C@@H](Cc1c[nH]cn1)C(=O)O [TP-7] (H-KQKRPRH-OH)
